Results from patent US5763442A, “Anti-parasitic activity” (Universiteit Van Pretoria, priority 1995, dated 1998).

What was measured:
P. falciparum (RB-1) = assay: Direct antimalarial activity, flow cytometry, strain RB-1; type: cell-based, Plasmodium falciparum
Procedure: To investigate the direct antimalarial activity of the riminophenazines B669, B4100, B4103, B4112, B4121, B4158 and B4169 against a laboratory strain of P. falciparum the following experiment was done:
A laboratory strain of P. falciparum (RB-1; obtained from Dr B L Sharp, National Malaria Research Programme, MRC, Durban) was maintained.
For these experiments malaria cultures of haematocrit 5.0% and initial parasitemia 2.0% were used. The malaria infected erythrocytes (ring stage) were incubated in microtitre plates with serial dilutions of B669, B4100, B4103, B4112, B4121, B4158 and B4169 (0.125-2 μg/ml) for 48 hours and processed for analysis on the flow cytometer as described in Example 3.

[1] = test system: Plasmodium falciparum (Fab-9); assay: 3H-hypoxanthine uptake, chloroquine sensitive strain Fab-9; type: cell-based; details: read-out: PERCENTAGE INHIBITION (3H-hypoxanthine uptake)
[2] = test system: Plasmodium falciparum (RB-1); assay: Microscopic parasitaemia, chloroquine resistant strain RB-1 (reversal of chloroquine resistance); type: cell-based; details: for Percentage red blood cells infected with P. falciparum (RB-1): 24 h
Procedure: (§1) The activity of riminophenazines to reverse chloroquine resistance in Plasmodium falciparum was tested in the following manner:
(§2) A preliminary series of experiments were carried out using two laboratory strains of P. falciparum (RB-1 and Fab-9). These strains were obtained from the Medical Research Council, Durban, where they were characterised as being either mildly resistant or sensitive to chloroquine. The isolates were maintained in suspension culture in known manner (as described by Freese J A, Markus M B and Golenser J, 1991; Bulletin of the World Health Organization 69: 707-712).
(§3) Infected erythrocytes were diluted with human O-positive red blood cells to a parasitaemia of 0.2-0.9% and suspended to 3% in RPMI containing 44 mg/l hypoxanthine and 10% human type O serum. Aliquots (100 μl) of the suspension were dispensed into the wells of 96-well microtitre plates. To these suspensions 100 μl of the medium were added containing either chloroquine or B669 alone or in combination. The final drug concentrations were 31, 62, 125, 250 500 and 1000 nM for chloroquine and 0.125, 0.25, 0.5 and 1.0 μg/ml for B669. Relevant solvent controls were included. The plates were incubated for 24 hours at 38° C. in a desiccator gassed with 5% O2, 5% CO2 and 90% N2. Thin blood smears were prepared from each well, stained with Giemsa stain and the percentage of red blood cells infected by at least one parasite determined microscopically.

[3] = test system: Plasmodium falciparum (Fab-9); assay: Microscopic parasitaemia, chloroquine sensitive strain Fab-9 (reversal of chloroquine resistance); type: cell-based; details: for Percentage red blood cells infected with P. falciparum (Fab-9): 24 h
Procedure: as §1, §2, §3

[4] = test system: Plasmodium falciparum (RB-9); assay: 3H-hypoxanthine uptake, chloroquine resistant strain (RB-9 [sic]); type: cell-based; details: for PERCENTAGE INHIBITION (3H-hypoxanthine uptake): RB-9 (so in the source)
Procedure: The following experiment was done to confirm previous results which were obtained microscopically and details of which are set out in Example 1.
For this experiment the same two strains of P. falciparum, as used in Example 1 (RB-1 and Fab-9) were again used. Infected erythrocytes were diluted with human O-positive red blood cells to a parasitaemia of 0.2-0.9% and suspended to 3% in RPMI containing 44 mg/l hypxanthine and 10% human type serum. Aliquots (100 μl) of the suspension were dispensed into the wells of 96-well microtitre plates. To these suspensions 100 μl of the medium were added containing either chloroquine or B669 alone or a combination of chloroquine and B669. Relevant solvent controls were included. Negative control wells were also included containing uninfected red blood cells. The plates were incubated at 38° C. in a desiccator gassed with 5% O2, 5% CO2 and 90% N2. After 24 hours 100 μl culture medium of each well was replaced with […] of hypoxathine--free medium containing 10% human serum and 0,5μ Ci^3 H-hypoxanthine and incubated for a further 18 hours. The contents of the wells were then harvested on to glass fibre filters. The filters were washed with distilled water, dried, haemoglobin dissolved in a sodium bicarbonate solution and placed in scintillation vials containing 4 ml scintillation fluid and counted for 5 min in a liquid scintillation counter.
The percentage inhibition was calculated as follows: [formula] where CPM was the mean of two values of counts per minute for each treatment.

[5] = B669 0.125 μg/ml + chloroquine 500 nM
[6] = B669 0.25 μg/ml + chloroquine 31 nM
[7] = B669 0.25 μg/ml + chloroquine 500 nM, *parasites morphologically abnormal
[8] = B669 0.25 μg/ml + chloroquine 1000 nM
[9] = B669 0.5 μg/ml + chloroquine 1000 nM
[10] = B669 1.0 μg/ml + chloroquine 1000 nM
[11] = B669 1.0 μg/ml alone, *parasites morphologically abnormal
[12] = B669 0.125 μg/ml + chloroquine 31 nM
[13] = B669 0.5 μg/ml + chloroquine 125 nM
[14] = B669 1.0 μg/ml + chloroquine 31 nM
[15] = B669 1.0 μg/ml + chloroquine 125 nM
[16] = Plasmodium falciparum, read-out: PERCENTAGE INHIBITION (3H-hypoxanthine uptake)

What does the source list for `c1ccc(Nc2cc3nc4ccccc4n(-c4ccccc4)c-3cc2=NC2CCCCC2)cc1` [Compound B669, N,5-bis(phenyl)-3,5-dihydro-3-(cyclohexylimino)-2-phenazinamine]?
inhibition at 0.5 µg/mL (P. falciparum (RB-1); Plasmodium falciparum, 0.5 μg/ml, 48 h, FIG. 2, read-out: inhibition of growth of P. falciparum): > 50%; activity against the malaria microorganism Plasmodium falciparum (P. falciparum (RB-1); summary statement): good activity; inhibition at 0.125 µg/mL [1]: 29.8%; inhibition at 0.25 µg/mL [1]: 10.4%; inhibition at 0.5 µg/mL [1]: 41.7%; inhibition at 1 µg/mL [1]: 46.6%; increase of sensitivity to chloroquine, chloroquine resistant strain ([2]; 125 nM chloroquine, 0.125 μg/ml B669): up to two fold; increase of sensitivity to chloroquine, chloroquine resistant strain ([2]; 500 nM chloroquine, 0.25 μg/ml B669): up to three fold; Percentage red blood cells infected with P. falciparum (RB-1) ([2]; B669 0.125 μg/ml + chloroquine 125 nM, *parasites morphologically abnormal): 1.6%; Percentage red blood cells infected with P. falciparum (RB-1) [2, 5]: 1.3%; Percentage red blood cells infected with P. falciparum (RB-1) ([2]; B669 0.125 μg/ml alone): 3.6%; Percentage red blood cells infected with P. falciparum (RB-1) [2, 6]: 3.9%; Percentage red blood cells infected with P. falciparum (RB-1) ([2]; B669 0.25 μg/ml + chloroquine 62 nM, *parasites morphologically abnormal): 2.8%; Percentage red blood cells infected with P. falciparum (RB-1) ([2]; B669 0.25 μg/ml + chloroquine 125 nM, *parasites morphologically abnormal): 1.9%; Percentage red blood cells infected with P. falciparum (RB-1) [2, 7]: 0.9%; Percentage red blood cells infected with P. falciparum (RB-1) [2, 8]: 0%; Percentage red blood cells infected with P. falciparum (RB-1) ([2]; B669 0.25 μg/ml alone): 4.0%; Percentage red blood cells infected with P. falciparum (RB-1) ([2]; B669 0.5 μg/ml + chloroquine 250 nM, *parasites morphologically abnormal): 1.4%; Percentage red blood cells infected with P. falciparum (RB-1) [2, 9]: 0.1%; Percentage red blood cells infected with P. falciparum (RB-1) ([2]; B669 0.5 μg/ml alone): 3.2%; Percentage red blood cells infected with P. falciparum (RB-1) ([2]; B669 1.0 μg/ml + chloroquine 31 nM, *parasites morphologically abnormal): 2.6%; Percentage red blood cells infected with P. falciparum (RB-1) ([2]; B669 1.0 μg/ml + chloroquine 250 nM, *parasites morphologically abnormal): 0.1%; Percentage red blood cells infected with P. falciparum (RB-1) [2, 10]: 0%; Percentage red blood cells infected with P. falciparum (RB-1) [2, 11]: 2.6%; direct effect on parasite morphology ([2]; B669 alone 1.0 μg/ml): morphological deterioration of the parasites was observed; percentage parasitaemia versus untreated control systems ([2]; B669 alone 1.0 μg/ml): did not differ from the untreated control systems; Percentage red blood cells infected with P. falciparum (Fab-9) [3, 12]: 3.9%; Percentage red blood cells infected with P. falciparum (Fab-9) [3, 5]: 0.9%; Percentage red blood cells infected with P. falciparum (Fab-9) ([3]; B669 0.125 μg/ml alone): 4.0%; Percentage red blood cells infected with P. falciparum (Fab-9) [3, 6]: 3.1%; Percentage red blood cells infected with P. falciparum (Fab-9) ([3]; B669 0.25 μg/ml + chloroquine 125 nM): 2.9%; Percentage red blood cells infected with P. falciparum (Fab-9) [3, 7]: 0.1%; Percentage red blood cells infected with P. falciparum (Fab-9) ([3]; B669 0.25 μg/ml alone): 4.4%; Percentage red blood cells infected with P. falciparum (Fab-9) ([3]; B669 0.5 μg/ml + chloroquine 31 nM, *parasites morphologically abnormal): 2.7%; Percentage red blood cells infected with P. falciparum (Fab-9) [3, 13]: 3.0%; Percentage red blood cells infected with P. falciparum (Fab-9) ([3]; B669 0.5 μg/ml + chloroquine 500 nM, *parasites morphologically abnormal): 0.1%; Percentage red blood cells infected with P. falciparum (Fab-9) ([3]; B669 0.5 μg/ml alone): 3.0%; Percentage red blood cells infected with P. falciparum (Fab-9) [3, 14]: 2.9%; Percentage red blood cells infected with P. falciparum (Fab-9) [3, 15]: 0.9%; Percentage red blood cells infected with P. falciparum (Fab-9) ([3]; B669 1.0 μg/ml + chloroquine 500 nM, *parasites morphologically abnormal): 0.1%; Percentage red blood cells infected with P. falciparum (Fab-9) [3, 11]: 4.1%; direct effect on parasite morphology ([3]; B669 alone 1.0 μg/ml): morphological deterioration of the parasites was observed; percentage parasitaemia versus untreated control systems ([3]; B669 alone 1.0 μg/ml): did not differ from the untreated control systems; effect on sensitivity of chloroquine sensitive strain to chloroquine ([3]; microscopy): did not increase the sensitivity; increase of sensitivity to chloroquine, chloroquine resistant strain ([4]; 250 nM chloroquine, 0.125-0.5 μg/ml B669): up to three fold; increase of sensitivity to chloroquine, chloroquine resistant strain ([4]; 125 μM (so in the source) chloroquine, 0.5 and 1.0 μg/ml B669): up to ten fold; inhibition at 0.125 µg/mL [4, 16]: 0%; inhibition at 0.25 µg/mL [4, 16]: 0%; inhibition at 0.5 µg/mL [4, 16]: 0%; inhibition at 1 µg/mL [4, 16]: 0%; PERCENTAGE INHIBITION (3H-hypoxanthine uptake) [4, 12]: 15.2%; PERCENTAGE INHIBITION (3H-hypoxanthine uptake) ([4]; B669 0.125 μg/ml + chloroquine 62 nM): 12.2%; PERCENTAGE INHIBITION (3H-hypoxanthine uptake) ([4]; B669 0.125 μg/ml + chloroquine 250 nM): 100%; PERCENTAGE INHIBITION (3H-hypoxanthine uptake) [4, 5]: 100%; PERCENTAGE INHIBITION (3H-hypoxanthine uptake) ([4]; B669 0.125 μg/ml + chloroquine 1000 nM): 100%; PERCENTAGE INHIBITION (3H-hypoxanthine uptake) ([4]; B669 0.25 μg/ml + chloroquine 62 nM): 26.4%; PERCENTAGE INHIBITION (3H-hypoxanthine uptake) ([4]; B669 0.25 μg/ml + chloroquine 250 nM): 100%; PERCENTAGE INHIBITION (3H-hypoxanthine uptake) ([4]; B669 0.25 μg/ml + chloroquine 500 nM): 98.8%; PERCENTAGE INHIBITION (3H-hypoxanthine uptake) [4, 8]: 95%; PERCENTAGE INHIBITION (3H-hypoxanthine uptake) ([4]; B669 0.5 μg/ml + chloroquine 62 nM): 16.6%; PERCENTAGE INHIBITION (3H-hypoxanthine uptake) [4, 13]: 92%; PERCENTAGE INHIBITION (3H-hypoxanthine uptake) ([4]; B669 0.5 μg/ml + chloroquine 250 nM): 95%; PERCENTAGE INHIBITION (3H-hypoxanthine uptake) ([4]; B669 0.5 μg/ml + chloroquine 500 nM): 100%; PERCENTAGE INHIBITION (3H-hypoxanthine uptake) [4, 9]: 100%; PERCENTAGE INHIBITION (3H-hypoxanthine uptake) [4, 14]: 58.6%; PERCENTAGE INHIBITION (3H-hypoxanthine uptake) ([4]; B669 1.0 μg/ml + chloroquine 62 nM): 100%; PERCENTAGE INHIBITION (3H-hypoxanthine uptake) [4, 15]: 100%; PERCENTAGE INHIBITION (3H-hypoxanthine uptake) ([4]; B669 1.0 μg/ml + chloroquine 250 nM): 100%; PERCENTAGE INHIBITION (3H-hypoxanthine uptake) ([4]; B669 1.0 μg/ml + chloroquine 500 nM): 100%; PERCENTAGE INHIBITION (3H-hypoxanthine uptake) [4, 10]: 100%; effects of the experimental drug at low chloroquine concentrations ([4]; chloroquine 31 and 62 nM): Effects of the experimental drug was also seen
